The values that follow come from the supplement of paper PMC8671470.

In test [1] the test system is LAMA-84. Put plainly: cell viability (% survival relative to DMSO control, bortezomib = 0%); higher = less cytotoxic. To be noted: 72 h. In outline:
(§1)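 Percent survival is reported as the mean of duplicate wells. Cells from 10 AML and 5 CML lines were plated in 384-well plates containing compounds at 1, 10, 100, 1000 or 10000 nM and kept for 72 h at 37 °C in 5% CO2. Readout used CellTiter-Glo luminescence, scaled so that vehicle equals 100% and a 10 µM positive control equals 0%.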

Test [2] concerns KG-1. Described as above. The note with it: 72 h. The gist of the method:
as §1

Structures are written as SMILES.

One may read the cell viability as a read-out of living cells in per cent, often relative to untreated cells. Turning to `COc1c(C)c2c(c(O)c1C/C=C(\C)CCC(=O)O)C(=O)OC2` [Mycophenolic acid], the cell viability in test [1] (1 nM) was found to be 106%; in test [1] (10 nM), 93.2%; in test [1] (100 nM) it was 108%; in test [1] (1000 nM), 46.8%; in test [1] (10000 nM), 16.9%; in test [2] (1 nM) it was 101%. The cell viability in test [2] (10 nM) stood at 104%; in test [2] (100 nM), 94.5%; in test [2] (1000 nM), 70.6%; in test [2] (10000 nM), 18.5%.

For the compound `Cc1noc2c1-c1ccccc1C(c1ccc(Cl)cc1)=N[C@H]2CC(N)=O` [CPI-0610], the cell viability in test [1] (1 nM) stood at 107%; in test [1] (10 nM), 92.3%; in test [1] (100 nM) it was 98.4%; in test [1] (1000 nM), 67.2%; in test [1] (10000 nM), 33.6%; in test [2] (1 nM), 100%. Further, the cell viability turned out to be 93.9% in test [2] (10 nM), 62.6% in test [2] (100 nM), 21.5% in test [2] (1000 nM) and 12.7% in test [2] (10000 nM).

For the compound `Nc1ncnc2c1ncn2[C@@H]1O[C@H](CSCC[C@H](N)C(=O)O)[C@@H](O)[C@H]1O` [S-Adenosyl Homocysteine], the cell viability in test [1] (1 nM) stood at 105%; in test [1] (10 nM), 110%; in test [1] (100 nM), 100%; in test [1] (1000 nM) it was 99.4%; in test [1] (10000 nM), 103%; in test [2] (1 nM), 110%. The cell viability in test [2] (10 nM) came to 106%; in test [2] (100 nM), 98.1%; in test [2] (1000 nM) it was 100%; in test [2] (10000 nM) it was 102%.

With `O=C(O)CC[C@H](NC(=O)c1ccc([N+](=O)[O-])cc1)C(=O)O` [(S)-2-(4-Nitrobenzamido)pentanedioic acid], the cell viability in test [1] (1 nM) came out at 98.8%; in test [1] (10 nM), 77.2%; in test [1] (100 nM), 99.6%; in test [1] (1000 nM) it was 103%; in test [1] (10000 nM), 100%; in test [2] (1 nM) it was 95.5%. Further, the cell viability in test [2] (10 nM) was 93.2%; in test [2] (100 nM), 97.4%; in test [2] (1000 nM), 98.6%; in test [2] (10000 nM) it was 99.9%.

Take `NC(=O)c1ncn([C@@H]2O[C@H](CO)[C@@H](O)[C@H]2O)n1` [Ribavirin]: the cell viability was found to be 84.9% in test [1] (1 nM); 98.2% in test [1] (10 nM); 101% in test [1] (100 nM); 110% in test [1] (1000 nM); 89.8% in test [1] (10000 nM); 98.9% in test [2] (1 nM). The cell viability was found to be 110% in test [2] (10 nM), 96.8% in test [2] (100 nM), 95.2% in test [2] (1000 nM) and 98.1% in test [2] (10000 nM).

On to `CCN(CC)CCN(Cc1ccc(-c2ccc(C(F)(F)F)cc2)cc1)C(=O)Cn1c(SCc2ccc(F)cc2)nc(=O)c2c1CCC2` [Darapladib], for which the cell viability in test [1] (1 nM) is 101%; in test [1] (10 nM), 83.5%; in test [1] (100 nM), 99.7%; in test [1] (1000 nM), 80.6%; in test [1] (10000 nM), -0.44%; in test [2] (1 nM) it was 104%. Moreover, the cell viability in test [2] (10 nM) was found to be 108%; in test [2] (100 nM) it was 93.6%; in test [2] (1000 nM) it was 87.8%; in test [2] (10000 nM), 0.0114%.

Regarding `Oc1cc(Cl)ccc1Oc1ccc(Cl)cc1Cl` [Triclosan], the cell viability in test [1] (1 nM) was 102%; in test [1] (10 nM), 91.1%; in test [1] (100 nM), 103%; in test [1] (1000 nM) it was 108%; in test [1] (10000 nM), 66.5%; in test [2] (1 nM), 111%. Also, the cell viability in test [2] (10 nM) was 89.3%; in test [2] (100 nM) it was 98.3%; in test [2] (1000 nM), 109%; in test [2] (10000 nM), 143%.

In the case of `CC12CCC(O)CC1CCC1C2CCC2(C)C(C3=CC(=O)OC3)CCC12O` (stereo not given) [Digitoxigenin], the cell viability was 109% in test [1] (1 nM); 105% in test [1] (10 nM); 84.6% in test [1] (100 nM); 6.05% in test [1] (1000 nM); 0.855% in test [1] (10000 nM); 128% in test [2] (1 nM). Further, the cell viability in test [2] (10 nM) is 113%; in test [2] (100 nM), 87.5%; in test [2] (1000 nM) it was 6.15%; in test [2] (10000 nM), -1.05%.
